This passage reports EC50 results from ChEMBL document CHEMBL1833824, “Effects of cyclization on stability, structure, and activity of α-conotoxin RgIA at the α9α10 nicotinic acetylcholine receptor and GABA(B) receptor” (J Med Chem, 2011).

The experiment in a line: Activation of human alpha-9/rat alpha-10 nACHR expressed in Xenopus oocytes assessed as increase of acetylcholine-induced current. The experiment is classed as cell-based. The following applies: Oocyte.

pEC50: −log10 of the molar value.

By pEC50 is commonly meant the EC50 on a negative log10 scale, so that one unit is a factor of ten. In the case of `CC(=O)OCC[N+](C)(C)C` [ACETYLCHOLINE], the pEC50 is 4.30.
